Reference: publication PMC6874179, “Development of Macrocycle Kinase Inhibitors for ALK2 Using Fibrodysplasia Ossificans Progressiva‐Derived Endothelial Cells” (JBMR Plus, 2019)

Tests used:
Assay in all cases: Proqinase Kinase profiling
Assay type in all cases: biochemical
Conditions in all cases: read-out: % inhibition at 100nM
ACVRL1 = target: T1, ACVRL1 (Homo sapiens, UniProt P37023)
T1 construct: purchased DiscoverX

RET_Y791F = target: T2, RET_Y791F (Homo sapiens, UniProt P07949, Y791F)
T2 construct: purchased DiscoverX

RET_E762Q = target: T3, RET_E762Q (Homo sapiens, UniProt P07949, E762Q)
T3 construct: purchased DiscoverX

CSNK1G1 = target: T4, CSNK1G1 (Homo sapiens, UniProt Q9HCP0)
T4 construct: purchased DiscoverX

MAP3K3 = target: T5, MAP3K3 (Homo sapiens, UniProt Q99759)
T5 construct: purchased DiscoverX

PDGFRA_V561D = target: T6, PDGFRA_V561D (Homo sapiens, UniProt P16234, V561D)
T6 construct: purchased DiscoverX

DAPK3 = target: T7, DAPK3 (Homo sapiens, UniProt O43293)
T7 construct: purchased DiscoverX

SLK = target: T8, SLK (Homo sapiens, UniProt Q9H2G2)
T8 construct: purchased DiscoverX

MAP2K1 = target: T9, MAP2K1 (Homo sapiens, UniProt Q02750)
T9 construct: purchased DiscoverX

MKNK2 = target: T10, MKNK2 (Homo sapiens, UniProt Q9HBH9)
T10 construct: purchased DiscoverX

ALK = target: T11, ALK (Homo sapiens, UniProt Q9UM73)
T11 construct: purchased DiscoverX

CSNK1G2 = target: T12, CSNK1G2 (Homo sapiens, UniProt P78368)
T12 construct: purchased DiscoverX

PRKD2 = target: T13, PRKD2 (Homo sapiens, UniProt Q9BZL6)
T13 construct: purchased DiscoverX

DYRK4 = target: T14, DYRK4 (Homo sapiens, UniProt Q9NR20)
T14 construct: purchased DiscoverX

PRKD3 = target: T15, PRKD3 (Homo sapiens, UniProt O94806)
T15 construct: purchased DiscoverX

NEK2 = target: T16, NEK2 (Homo sapiens, UniProt P51955)
T16 construct: purchased DiscoverX

ITK = target: T17, ITK (Homo sapiens, UniProt Q08881)
T17 construct: purchased DiscoverX

EIF2AK1 = target: T18, EIF2AK1 (Homo sapiens, UniProt Q9BQI3)
T18 construct: purchased DiscoverX

CLK2 = target: T19, CLK2 (Homo sapiens, UniProt P49760)
T19 construct: purchased DiscoverX

FGR = target: T20, FGR (Homo sapiens, UniProt P09769)
T20 construct: purchased DiscoverX

PLK4 = target: T21, PLK4 (Homo sapiens, UniProt O00444)
T21 construct: purchased DiscoverX

MAPK1 = target: T22, MAPK1 (Homo sapiens, UniProt P28482)
T22 construct: purchased DiscoverX

TAOK3 = target: T23, TAOK3 (Homo sapiens, UniProt Q9H2K8)
T23 construct: purchased DiscoverX

CDK5_p25 = target: T24, CDK5_p25 (Homo sapiens, UniProt Q00535)
T24 construct: purchased DiscoverX

PRKCQ = target: T25, PRKCQ (Homo sapiens, UniProt Q04759)
T25 construct: purchased DiscoverX

BTK = target: T26, BTK (Homo sapiens, UniProt Q06187)
T26 construct: purchased DiscoverX

FGFR3_K650M = target: T27, FGFR3_K650M (Homo sapiens, UniProt P22607, K650M)
T27 construct: purchased DiscoverX

PKN2 = target: T28, PKN2 (Homo sapiens, UniProt Q16513)
T28 construct: purchased DiscoverX

CHEK2 = target: T29, CHEK2 (Homo sapiens, UniProt O96017)
T29 construct: purchased DiscoverX

IKBKB = target: T30, IKBKB (Homo sapiens, UniProt O14920)
T30 construct: purchased DiscoverX

PHKG1 = target: T31, PHKG1 (Homo sapiens, UniProt Q16816)
T31 construct: purchased DiscoverX

KIT = target: T32, KIT (Homo sapiens, UniProt P10721)
T32 construct: purchased DiscoverX

INSR = target: T33, INSR (Homo sapiens, UniProt P06213)
T33 construct: purchased DiscoverX

LIMK1 = target: T34, LIMK1 (Homo sapiens, UniProt P53667)
T34 construct: purchased DiscoverX

CDK4_cyclinD3 = target: T35, CDK4_cyclinD3 (Homo sapiens, UniProt P11802)
T35 construct: purchased DiscoverX

KIT_D816V = target: T36, KIT_D816V (Homo sapiens, UniProt P10721, D816V)
T36 construct: purchased DiscoverX

CDK7_cyclinH_MAT1 = target: T37, CDK7_cyclinH_MAT1 (Homo sapiens, UniProt P50613)
T37 construct: purchased DiscoverX

NUAK2 = target: T38, NUAK2 (Homo sapiens, UniProt Q9H093)
T38 construct: purchased DiscoverX

PRKAA1 = target: T39, PRKAA1 (Homo sapiens, UniProt Q13131)
T39 construct: purchased DiscoverX

EGFR_E746-A750del = target: T40, EGFR_E746-A750del (Homo sapiens, UniProt P00533, DEL746-750)
T40 construct: purchased DiscoverX

MET_Y1230D = target: T41, MET_Y1230D (Homo sapiens, UniProt P08581, Y1230D)
T41 construct: purchased DiscoverX

EGFR = target: T42, EGFR (Homo sapiens, UniProt P00533)
T42 construct: purchased DiscoverX

MST1R = target: T43, MST1R (Homo sapiens, UniProt Q04912)
T43 construct: purchased DiscoverX
T43 sequence (Q04912 25-1400): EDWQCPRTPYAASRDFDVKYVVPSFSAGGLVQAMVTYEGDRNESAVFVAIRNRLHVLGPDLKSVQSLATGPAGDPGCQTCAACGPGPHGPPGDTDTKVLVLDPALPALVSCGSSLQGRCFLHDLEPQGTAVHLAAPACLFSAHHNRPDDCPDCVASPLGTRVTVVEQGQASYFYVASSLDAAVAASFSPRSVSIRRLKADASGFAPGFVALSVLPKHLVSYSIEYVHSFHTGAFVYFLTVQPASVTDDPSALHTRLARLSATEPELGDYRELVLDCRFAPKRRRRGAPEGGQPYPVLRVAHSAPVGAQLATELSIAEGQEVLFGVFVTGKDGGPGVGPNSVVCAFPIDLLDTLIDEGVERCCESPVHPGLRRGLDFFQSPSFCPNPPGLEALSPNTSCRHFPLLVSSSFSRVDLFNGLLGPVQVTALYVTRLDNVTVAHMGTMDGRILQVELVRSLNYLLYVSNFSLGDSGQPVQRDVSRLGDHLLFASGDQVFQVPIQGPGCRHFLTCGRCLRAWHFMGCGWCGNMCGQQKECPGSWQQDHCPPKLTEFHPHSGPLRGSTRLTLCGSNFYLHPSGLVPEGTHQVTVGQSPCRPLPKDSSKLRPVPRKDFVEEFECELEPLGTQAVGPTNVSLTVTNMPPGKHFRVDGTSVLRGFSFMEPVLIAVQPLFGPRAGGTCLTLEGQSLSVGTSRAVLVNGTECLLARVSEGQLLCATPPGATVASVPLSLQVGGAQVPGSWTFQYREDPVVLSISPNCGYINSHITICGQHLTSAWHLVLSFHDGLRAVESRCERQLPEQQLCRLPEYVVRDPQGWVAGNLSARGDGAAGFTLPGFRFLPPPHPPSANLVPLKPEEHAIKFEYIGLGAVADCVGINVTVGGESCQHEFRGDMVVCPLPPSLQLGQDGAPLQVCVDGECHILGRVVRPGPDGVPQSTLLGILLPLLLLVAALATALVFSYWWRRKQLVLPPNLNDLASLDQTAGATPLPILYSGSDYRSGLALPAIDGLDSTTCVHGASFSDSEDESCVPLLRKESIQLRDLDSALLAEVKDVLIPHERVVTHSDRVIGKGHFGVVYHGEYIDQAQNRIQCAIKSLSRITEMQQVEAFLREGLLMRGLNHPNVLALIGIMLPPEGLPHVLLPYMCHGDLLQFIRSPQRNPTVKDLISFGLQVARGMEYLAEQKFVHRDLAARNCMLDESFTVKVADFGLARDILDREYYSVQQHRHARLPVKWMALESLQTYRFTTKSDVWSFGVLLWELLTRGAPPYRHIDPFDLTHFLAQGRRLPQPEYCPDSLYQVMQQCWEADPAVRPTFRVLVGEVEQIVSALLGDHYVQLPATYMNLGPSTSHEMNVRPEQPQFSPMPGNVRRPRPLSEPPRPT

T36 sequence (P10721 26-976 D816V): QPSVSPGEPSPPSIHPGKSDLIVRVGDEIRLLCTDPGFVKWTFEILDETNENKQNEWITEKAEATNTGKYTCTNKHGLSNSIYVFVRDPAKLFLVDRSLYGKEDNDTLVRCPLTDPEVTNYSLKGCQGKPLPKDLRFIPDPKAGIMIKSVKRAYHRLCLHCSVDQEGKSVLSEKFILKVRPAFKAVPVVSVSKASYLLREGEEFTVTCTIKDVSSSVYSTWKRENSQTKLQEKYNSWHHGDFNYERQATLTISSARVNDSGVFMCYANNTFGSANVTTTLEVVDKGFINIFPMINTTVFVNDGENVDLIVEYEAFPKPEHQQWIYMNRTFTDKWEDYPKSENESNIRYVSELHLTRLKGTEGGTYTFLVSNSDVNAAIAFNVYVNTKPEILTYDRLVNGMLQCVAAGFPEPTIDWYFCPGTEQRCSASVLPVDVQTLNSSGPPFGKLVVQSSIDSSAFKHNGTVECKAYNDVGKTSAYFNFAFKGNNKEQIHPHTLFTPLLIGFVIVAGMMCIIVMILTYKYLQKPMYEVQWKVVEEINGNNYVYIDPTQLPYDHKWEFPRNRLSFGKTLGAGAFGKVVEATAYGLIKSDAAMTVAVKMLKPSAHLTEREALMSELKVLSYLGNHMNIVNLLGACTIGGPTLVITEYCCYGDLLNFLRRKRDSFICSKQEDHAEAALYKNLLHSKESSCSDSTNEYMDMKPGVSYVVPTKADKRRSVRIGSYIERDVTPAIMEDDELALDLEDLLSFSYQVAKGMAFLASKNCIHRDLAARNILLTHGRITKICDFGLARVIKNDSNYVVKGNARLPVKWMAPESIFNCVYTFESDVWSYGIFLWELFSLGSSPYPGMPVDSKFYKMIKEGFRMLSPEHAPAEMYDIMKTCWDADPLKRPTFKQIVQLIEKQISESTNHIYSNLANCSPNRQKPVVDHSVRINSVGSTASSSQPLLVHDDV
T26 sequence (Q06187 whole entry): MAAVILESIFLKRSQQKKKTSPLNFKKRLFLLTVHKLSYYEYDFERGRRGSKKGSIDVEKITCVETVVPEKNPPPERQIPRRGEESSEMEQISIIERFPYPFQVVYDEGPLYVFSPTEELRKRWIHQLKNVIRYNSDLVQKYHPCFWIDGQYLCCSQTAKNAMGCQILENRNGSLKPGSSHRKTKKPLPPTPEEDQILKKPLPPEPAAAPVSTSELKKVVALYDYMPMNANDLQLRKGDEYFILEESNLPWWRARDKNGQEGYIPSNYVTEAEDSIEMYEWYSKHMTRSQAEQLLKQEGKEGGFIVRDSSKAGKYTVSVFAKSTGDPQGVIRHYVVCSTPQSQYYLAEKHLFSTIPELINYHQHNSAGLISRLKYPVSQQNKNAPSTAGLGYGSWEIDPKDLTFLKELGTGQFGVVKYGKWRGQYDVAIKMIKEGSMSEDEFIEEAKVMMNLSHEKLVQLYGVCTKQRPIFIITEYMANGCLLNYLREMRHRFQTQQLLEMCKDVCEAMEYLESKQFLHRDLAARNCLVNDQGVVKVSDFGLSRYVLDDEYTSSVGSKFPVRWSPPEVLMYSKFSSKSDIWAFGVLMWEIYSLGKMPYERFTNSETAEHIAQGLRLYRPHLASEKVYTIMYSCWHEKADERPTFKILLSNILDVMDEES
T18 sequence (Q9BQI3 whole entry): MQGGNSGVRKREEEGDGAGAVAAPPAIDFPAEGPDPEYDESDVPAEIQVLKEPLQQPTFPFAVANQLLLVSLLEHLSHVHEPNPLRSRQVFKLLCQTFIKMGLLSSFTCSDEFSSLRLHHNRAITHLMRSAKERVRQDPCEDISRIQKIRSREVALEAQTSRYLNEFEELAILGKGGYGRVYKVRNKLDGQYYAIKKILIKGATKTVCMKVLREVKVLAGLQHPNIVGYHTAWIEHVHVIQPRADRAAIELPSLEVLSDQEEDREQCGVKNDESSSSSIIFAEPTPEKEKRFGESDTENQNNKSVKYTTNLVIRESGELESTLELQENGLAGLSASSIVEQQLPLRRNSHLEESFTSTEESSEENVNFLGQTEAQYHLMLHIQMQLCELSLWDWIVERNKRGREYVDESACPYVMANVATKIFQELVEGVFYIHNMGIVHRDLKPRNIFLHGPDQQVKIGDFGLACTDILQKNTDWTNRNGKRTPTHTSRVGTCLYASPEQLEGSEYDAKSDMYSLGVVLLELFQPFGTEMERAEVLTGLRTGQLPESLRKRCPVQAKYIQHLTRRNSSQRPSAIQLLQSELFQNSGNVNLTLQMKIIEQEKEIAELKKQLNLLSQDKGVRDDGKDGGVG
T1 sequence (P37023 22-503): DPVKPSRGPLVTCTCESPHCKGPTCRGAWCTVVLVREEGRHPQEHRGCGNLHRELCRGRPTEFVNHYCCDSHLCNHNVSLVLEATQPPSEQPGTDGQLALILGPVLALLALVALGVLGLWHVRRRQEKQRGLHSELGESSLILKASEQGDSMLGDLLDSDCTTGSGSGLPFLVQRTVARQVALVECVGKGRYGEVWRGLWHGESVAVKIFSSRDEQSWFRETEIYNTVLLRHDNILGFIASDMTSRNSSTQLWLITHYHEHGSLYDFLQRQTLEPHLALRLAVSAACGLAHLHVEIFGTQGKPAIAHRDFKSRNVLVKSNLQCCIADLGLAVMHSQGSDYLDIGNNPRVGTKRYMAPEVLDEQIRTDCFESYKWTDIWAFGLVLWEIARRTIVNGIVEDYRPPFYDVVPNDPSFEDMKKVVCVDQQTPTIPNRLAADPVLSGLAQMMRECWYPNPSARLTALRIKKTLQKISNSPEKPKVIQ
T25 sequence (Q04759 whole entry): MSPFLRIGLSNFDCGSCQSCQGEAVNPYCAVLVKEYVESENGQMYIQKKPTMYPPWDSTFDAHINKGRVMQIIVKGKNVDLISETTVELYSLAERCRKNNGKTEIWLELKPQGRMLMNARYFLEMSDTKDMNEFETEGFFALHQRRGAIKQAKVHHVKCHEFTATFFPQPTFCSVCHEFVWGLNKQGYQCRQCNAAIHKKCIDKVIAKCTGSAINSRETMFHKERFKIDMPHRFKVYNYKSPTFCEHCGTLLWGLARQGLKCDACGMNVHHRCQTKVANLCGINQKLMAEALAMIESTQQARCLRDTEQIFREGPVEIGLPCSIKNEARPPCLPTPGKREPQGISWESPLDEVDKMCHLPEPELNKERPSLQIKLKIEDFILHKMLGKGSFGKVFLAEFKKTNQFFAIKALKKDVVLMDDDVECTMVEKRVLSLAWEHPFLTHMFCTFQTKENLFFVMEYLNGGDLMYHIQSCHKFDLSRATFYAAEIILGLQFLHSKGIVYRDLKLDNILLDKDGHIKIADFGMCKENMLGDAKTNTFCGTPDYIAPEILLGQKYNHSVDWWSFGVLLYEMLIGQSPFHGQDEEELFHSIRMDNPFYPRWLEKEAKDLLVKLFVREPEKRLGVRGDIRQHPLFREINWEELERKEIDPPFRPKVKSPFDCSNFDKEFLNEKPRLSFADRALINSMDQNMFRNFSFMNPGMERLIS
T32 sequence (P10721 26-976): as the sequence (P10721 26-976 D816V) above, with V791D counted along it

Clc1cc2cc(c1)-c1cnn3ccc(nc13)NCCOCCO2 [OD36]
inhibition at 0.1 µM (ACVRL1): 88%
inhibition at 0.1 µM (RET_Y791F): 30%
inhibition at 0.1 µM (RET_E762Q): 33%
inhibition at 0.1 µM (CSNK1G1): 1%
inhibition at 0.1 µM (MAP3K3): 1%
inhibition at 0.1 µM (PDGFRA_V561D): -1%
inhibition at 0.1 µM (DAPK3): 16%
inhibition at 0.1 µM (SLK): 13%
inhibition at 0.1 µM (MAP2K1): 6%
inhibition at 0.1 µM (MKNK2): 28%
inhibition at 0.1 µM (ALK): 6%
inhibition at 0.1 µM (CSNK1G2): -3%
inhibition at 0.1 µM (PRKD2): 9%
inhibition at 0.1 µM (DYRK4): 14%
inhibition at 0.1 µM (PRKD3): 2%
inhibition at 0.1 µM (NEK2): 0%
inhibition at 0.1 µM (ITK): -6%
inhibition at 0.1 µM (EIF2AK1): -4%
inhibition at 0.1 µM (CLK2): 10%
inhibition at 0.1 µM (FGR): 26%
inhibition at 0.1 µM (PLK4): -1%
inhibition at 0.1 µM (MAPK1): 10%
inhibition at 0.1 µM (TAOK3): 10%
inhibition at 0.1 µM (CDK5_p25): 10%
inhibition at 0.1 µM (PRKCQ): 12%
inhibition at 0.1 µM (BTK): 3%
inhibition at 0.1 µM (FGFR3_K650M): 2%
inhibition at 0.1 µM (PKN2): 8%
inhibition at 0.1 µM (CHEK2): 8%
inhibition at 0.1 µM (IKBKB): 1%
inhibition at 0.1 µM (PHKG1): 8%
inhibition at 0.1 µM (KIT): 33%
inhibition at 0.1 µM (INSR): 6%
inhibition at 0.1 µM (LIMK1): 16%
inhibition at 0.1 µM (CDK4_cyclinD3): -30%
inhibition at 0.1 µM (KIT_D816V): 36%
inhibition at 0.1 µM (CDK7_cyclinH_MAT1): 0%
inhibition at 0.1 µM (NUAK2): 9%
inhibition at 0.1 µM (PRKAA1): 21%
inhibition at 0.1 µM (EGFR_E746-A750del): 9%
inhibition at 0.1 µM (MET_Y1230D): -6%
inhibition at 0.1 µM (EGFR): 3%
inhibition at 0.1 µM (MST1R): -3%

Cc1cc2cc(c1)-c1cnn3ccc(nc13)NCCNC(=O)CCN(C)C2 [OD52]
inhibition at 0.1 µM (ACVRL1): 89%
inhibition at 0.1 µM (RET_Y791F): 30%
inhibition at 0.1 µM (RET_E762Q): 19%
inhibition at 0.1 µM (CSNK1G1): 16%
inhibition at 0.1 µM (MAP3K3): 13%
inhibition at 0.1 µM (PDGFRA_V561D): 12%
inhibition at 0.1 µM (DAPK3): 11%
inhibition at 0.1 µM (SLK): 10%
inhibition at 0.1 µM (MAP2K1): 10%
inhibition at 0.1 µM (MKNK2): 9%
inhibition at 0.1 µM (ALK): 8%
inhibition at 0.1 µM (CSNK1G2): 4%
inhibition at 0.1 µM (PRKD2): 4%
inhibition at 0.1 µM (DYRK4): 4%
inhibition at 0.1 µM (PRKD3): 4%
inhibition at 0.1 µM (NEK2): 3%
inhibition at 0.1 µM (ITK): 3%
inhibition at 0.1 µM (EIF2AK1): 2%
inhibition at 0.1 µM (CLK2): 1%
inhibition at 0.1 µM (FGR): 0%
inhibition at 0.1 µM (PLK4): -1%
inhibition at 0.1 µM (MAPK1): -1%
inhibition at 0.1 µM (TAOK3): -1%
inhibition at 0.1 µM (CDK5_p25): -2%
inhibition at 0.1 µM (PRKCQ): -2%
inhibition at 0.1 µM (BTK): -2%
inhibition at 0.1 µM (FGFR3_K650M): -2%
inhibition at 0.1 µM (PKN2): -3%
inhibition at 0.1 µM (CHEK2): -3%
inhibition at 0.1 µM (IKBKB): -3%
inhibition at 0.1 µM (PHKG1): -4%
inhibition at 0.1 µM (KIT): -4%
inhibition at 0.1 µM (INSR): -4%
inhibition at 0.1 µM (LIMK1): -5%
inhibition at 0.1 µM (CDK4_cyclinD3): -5%
inhibition at 0.1 µM (KIT_D816V): -5%
inhibition at 0.1 µM (CDK7_cyclinH_MAT1): -6%
inhibition at 0.1 µM (NUAK2): -7%
inhibition at 0.1 µM (PRKAA1): -11%
inhibition at 0.1 µM (EGFR_E746-A750del): -11%
inhibition at 0.1 µM (MET_Y1230D): -12%
inhibition at 0.1 µM (EGFR): -14%
inhibition at 0.1 µM (MST1R): -24%
